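48-hour exposure; five concentrations; linearly interpolated endpoints. GI50 is the concentration that inhibits growth by half. TGI marks complete inhibition of growth.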
Legend:
Assay in all cases: NCI-60 cell line screen, 48 h; in the data active = GI50 below about 0.43 µM; inactive = the rest
HS 578T breast = test system: HS 578T breast
U251 CNS = test system: U251 CNS
MOLT-4 leukemia = test system: MOLT-4 leukemia
KM12 colon = test system: KM12 colon
SF-295 CNS = test system: SF-295 CNS
NCI-H226 lung = test system: NCI-H226 lung
IGROV1 ovarian = test system: IGROV1 ovarian
SN12C renal = test system: SN12C renal
SF-539 CNS = test system: SF-539 CNS
OVCAR-3 ovarian = test system: OVCAR-3 ovarian
UACC-62 melanoma = test system: UACC-62 melanoma
EKVX NSCLC = test system: EKVX NSCLC
OVCAR-8 ovarian = test system: OVCAR-8 ovarian
ACHN renal = test system: ACHN renal
CCRF-CEM leukemia = test system: CCRF-CEM leukemia
HCT-116 colon = test system: HCT-116 colon
NCI-H522 lung = test system: NCI-H522 lung
UACC-257 melanoma = test system: UACC-257 melanoma
DU-145 prostate = test system: DU-145 prostate
MALME-3M melanoma = test system: MALME-3M melanoma
HOP-92 NSCLC = test system: HOP-92 NSCLC
HL-60(TB) leukemia = test system: HL-60(TB) leukemia
TK-10 renal = test system: TK-10 renal
SK-MEL-28 melanoma = test system: SK-MEL-28 melanoma
OVCAR-5 ovarian = test system: OVCAR-5 ovarian
OVCAR-4 ovarian = test system: OVCAR-4 ovarian
K-562 leukemia = test system: K-562 leukemia
RXF 393 renal = test system: RXF 393 renal
SK-MEL-5 melanoma = test system: SK-MEL-5 melanoma
SR leukemia = test system: SR leukemia
T-47D breast = test system: T-47D breast
A549 NSCLC = test system: A549 NSCLC
SF-268 CNS = test system: SF-268 CNS
CAKI-1 renal = test system: CAKI-1 renal
SNB-19 CNS = test system: SNB-19 CNS
RPMI-8226 leukemia = test system: RPMI-8226 leukemia
M14 melanoma = test system: M14 melanoma
COLO 205 colon = test system: COLO 205 colon
SW-620 colon = test system: SW-620 colon
NCI-H23 lung = test system: NCI-H23 lung
PC-3 prostate = test system: PC-3 prostate
HCC-2998 colon = test system: HCC-2998 colon
MCF7 breast = test system: MCF7 breast
HT29 colon = test system: HT29 colon
MDA-MB-435 = test system: MDA-MB-435
SK-OV-3 ovarian = test system: SK-OV-3 ovarian
A498 renal = test system: A498 renal
HOP-62 NSCLC = test system: HOP-62 NSCLC
NCI-H460 lung = test system: NCI-H460 lung
HCT-15 colon = test system: HCT-15 colon
LOX IMVI melanoma = test system: LOX IMVI melanoma
MDA-MB-468 breast = test system: MDA-MB-468 breast
BT-549 breast = test system: BT-549 breast
786-0 renal = test system: 786-0 renal
NCI/ADR-RES ovarian = test system: NCI/ADR-RES ovarian

CC(C)C[C@H](NC(=O)CNC(=O)C[C@H]1O[C@@H]2OC3(C)CC[C@H]4[C@H](C)CC[C@@H]([C@H]1C)[C@@]24OO3)B(O)O
9.46 µM: TGI (SF-295 CNS)
1.5 µM: TGI (NCI-H226 lung)
2.79 µM: TGI (MALME-3M melanoma)
57.8 µM: TGI (PC-3 prostate)
> 65 µM: TGI (HS 578T breast) | TGI (EKVX NSCLC) | TGI (ACHN renal) | TGI (DU-145 prostate) | TGI (OVCAR-4 ovarian) | TGI (K-562 leukemia) | TGI (A549 NSCLC) | TGI (SF-268 CNS) | TGI (CAKI-1 renal) | TGI (SNB-19 CNS) | TGI (MCF7 breast) | TGI (A498 renal) | TGI (786-0 renal) | TGI (NCI/ADR-RES ovarian)
2.93 µM: TGI (T-47D breast)
1.69 µM: TGI (MDA-MB-435)
8.04 µM: TGI (OVCAR-8 ovarian)
7.92 µM: TGI (SN12C renal)
8.24 µM: TGI (SW-620 colon)
10.3 µM: TGI (OVCAR-5 ovarian)
2.74 µM: TGI (CCRF-CEM leukemia)
3.37 µM: TGI (SK-MEL-28 melanoma)
4.45 µM: TGI (KM12 colon)
2.14 µM: TGI (UACC-257 melanoma)
51.4 µM: TGI (TK-10 renal)
16.5 µM: TGI (HCT-15 colon)
1.67 µM: TGI (NCI-H522 lung)
1.75 µM: TGI (HCT-116 colon)
4.62 µM: TGI (HL-60(TB) leukemia)
14.5 µM: TGI (U251 CNS)
38.2 µM: TGI (SK-OV-3 ovarian)
active: GI50 (MOLT-4 leukemia) 0.267 µM | GI50 (SF-539 CNS) 0.37 µM | GI50 (CCRF-CEM leukemia) 0.251 µM | GI50 (HL-60(TB) leukemia) 0.21 µM | GI50 (RXF 393 renal) 0.162 µM | GI50 (SR leukemia) 0.188 µM | GI50 (RPMI-8226 leukemia) 0.184 µM | GI50 (MCF7 breast) 0.349 µM | GI50 (MDA-MB-435) 0.275 µM | GI50 (MDA-MB-468 breast) 0.341 µM | GI50 (BT-549 breast) 0.261 µM
0.556 µM: TGI (RXF 393 renal)
18.9 µM: TGI (NCI-H460 lung)
2.21 µM: TGI (UACC-62 melanoma) | TGI (HCC-2998 colon)
4.9 µM: TGI (HOP-92 NSCLC)
3.46 µM: TGI (M14 melanoma) | TGI (HT29 colon)
3.12 µM: TGI (OVCAR-3 ovarian)
8.45 µM: TGI (NCI-H23 lung)
2.27 µM: TGI (SK-MEL-5 melanoma)
0.805 µM: TGI (SR leukemia)
13.8 µM: TGI (IGROV1 ovarian) | TGI (COLO 205 colon)
1.22 µM: TGI (BT-549 breast)
1.68 µM: TGI (LOX IMVI melanoma)
1.56 µM: TGI (MDA-MB-468 breast)
inactive: GI50 (HS 578T breast) 1.91 µM | GI50 (U251 CNS) 2.39 µM | GI50 (KM12 colon) 1.67 µM | GI50 (SF-295 CNS) 2.17 µM | GI50 (NCI-H226 lung) 0.455 µM | GI50 (IGROV1 ovarian) 2.69 µM | GI50 (SN12C renal) 1.92 µM | GI50 (OVCAR-3 ovarian) 0.583 µM | GI50 (UACC-62 melanoma) 0.958 µM | GI50 (EKVX NSCLC) 5.95 µM | GI50 (OVCAR-8 ovarian) 1.99 µM | GI50 (ACHN renal) 4.75 µM | GI50 (HCT-116 colon) 0.437 µM | GI50 (NCI-H522 lung) 0.531 µM | GI50 (UACC-257 melanoma) 0.818 µM | GI50 (DU-145 prostate) 7.32 µM | GI50 (MALME-3M melanoma) 0.719 µM | GI50 (HOP-92 NSCLC) 1.5 µM | GI50 (TK-10 renal) 2.34 µM | GI50 (SK-MEL-28 melanoma) 0.716 µM | GI50 (OVCAR-5 ovarian) 1.68 µM | GI50 (OVCAR-4 ovarian) 3.04 µM | GI50 (K-562 leukemia) 1.92 µM | GI50 (SK-MEL-5 melanoma) 1.09 µM | GI50 (T-47D breast) 0.771 µM | GI50 (A549 NSCLC) 3.03 µM | GI50 (SF-268 CNS) 2.39 µM | GI50 (CAKI-1 renal) 24.3 µM | GI50 (SNB-19 CNS) 3.44 µM | GI50 (M14 melanoma) 1.24 µM | GI50 (COLO 205 colon) 2.64 µM | GI50 (SW-620 colon) 0.437 µM | GI50 (NCI-H23 lung) 1.68 µM | GI50 (PC-3 prostate) 2.52 µM | GI50 (HCC-2998 colon) 1.17 µM | GI50 (HT29 colon) 0.983 µM | GI50 (SK-OV-3 ovarian) 4.13 µM | GI50 (A498 renal) 5.48 µM | GI50 (HOP-62 NSCLC) 3.05 µM | GI50 (NCI-H460 lung) 3.54 µM | GI50 (HCT-15 colon) 5.52 µM | GI50 (LOX IMVI melanoma) 0.753 µM | GI50 (786-0 renal) 3.32 µM | GI50 (NCI/ADR-RES ovarian) 55.3 µM
1.54 µM: TGI (SF-539 CNS)
0.604 µM: TGI (RPMI-8226 leukemia)
5.19 µM: TGI (MOLT-4 leukemia)
14.7 µM: TGI (HOP-62 NSCLC)

Cc1ccc([N+](=O)[O-])c(C(=O)Nc2ccc(-c3ccc4c(c3)NC(=O)/C4=C\c3ccc[nH]3)cc2)c1
54 µM: TGI (HOP-62 NSCLC)
49.8 µM: TGI (A498 renal)
50.3 µM: TGI (SNB-19 CNS)
61 µM: TGI (BT-549 breast)
68.8 µM: TGI (786-0 renal)
19.2 µM: TGI (NCI-H23 lung)
inactive: GI50 (HS 578T breast) 26.3 µM | GI50 (U251 CNS) 16.4 µM | GI50 (MOLT-4 leukemia) 11.2 µM | GI50 (KM12 colon) > 100 µM | GI50 (SF-295 CNS) 29.2 µM | GI50 (NCI-H226 lung) 23.4 µM | GI50 (IGROV1 ovarian) 17.8 µM | GI50 (SN12C renal) 55.2 µM | GI50 (SF-539 CNS) 25.4 µM | GI50 (OVCAR-3 ovarian) 27.6 µM | GI50 (UACC-62 melanoma) 90.4 µM | GI50 (OVCAR-8 ovarian) 18.7 µM | GI50 (ACHN renal) 43.6 µM | GI50 (CCRF-CEM leukemia) > 100 µM | GI50 (HCT-116 colon) 23.2 µM | GI50 (NCI-H522 lung) 17 µM | GI50 (UACC-257 melanoma) > 100 µM | GI50 (DU-145 prostate) 43.8 µM | GI50 (MALME-3M melanoma) 36.7 µM | GI50 (HOP-92 NSCLC) 21.3 µM | GI50 (HL-60(TB) leukemia) > 100 µM | GI50 (TK-10 renal) 22.7 µM | GI50 (SK-MEL-28 melanoma) > 100 µM | GI50 (OVCAR-5 ovarian) 23.9 µM | GI50 (OVCAR-4 ovarian) 24.4 µM | GI50 (K-562 leukemia) > 100 µM | GI50 (RXF 393 renal) 14.6 µM | GI50 (SK-MEL-5 melanoma) > 100 µM | GI50 (SR leukemia) 10.4 µM | GI50 (T-47D breast) 0.515 µM | GI50 (A549 NSCLC) > 100 µM | GI50 (SF-268 CNS) 31.1 µM | GI50 (CAKI-1 renal) > 100 µM | GI50 (SNB-19 CNS) 19.9 µM | GI50 (RPMI-8226 leukemia) > 100 µM | GI50 (M14 melanoma) > 100 µM | GI50 (COLO 205 colon) 53.1 µM | GI50 (SW-620 colon) > 100 µM | GI50 (NCI-H23 lung) 1.78 µM | GI50 (PC-3 prostate) > 100 µM | GI50 (HCC-2998 colon) 60 µM | GI50 (HT29 colon) > 100 µM | GI50 (MDA-MB-435) > 100 µM | GI50 (SK-OV-3 ovarian) 23.6 µM | GI50 (A498 renal) 23 µM | GI50 (HOP-62 NSCLC) 22.2 µM | GI50 (NCI-H460 lung) 3.48 µM | GI50 (HCT-15 colon) > 100 µM | GI50 (LOX IMVI melanoma) 45.9 µM | GI50 (BT-549 breast) 9.01 µM | GI50 (786-0 renal) 24.4 µM | GI50 (NCI/ADR-RES ovarian) 17 µM
57.1 µM: TGI (HOP-92 NSCLC)
35.5 µM: TGI (U251 CNS)
98.8 µM: TGI (OVCAR-3 ovarian)
active: GI50 (EKVX NSCLC) 0.211 µM | GI50 (MCF7 breast) 0.237 µM | GI50 (MDA-MB-468 breast) 0.267 µM
55 µM: TGI (IGROV1 ovarian)
17.1 µM: TGI (MCF7 breast)
20.9 µM: TGI (T-47D breast)
> 100 µM: TGI (HS 578T breast) | TGI (MOLT-4 leukemia) | TGI (KM12 colon) | TGI (SF-295 CNS) | TGI (NCI-H226 lung) | TGI (SN12C renal) | TGI (SF-539 CNS) | TGI (UACC-62 melanoma) | TGI (EKVX NSCLC) | TGI (ACHN renal) | TGI (CCRF-CEM leukemia) | TGI (HCT-116 colon) | TGI (UACC-257 melanoma) | TGI (DU-145 prostate) | TGI (MALME-3M melanoma) | TGI (HL-60(TB) leukemia) | TGI (SK-MEL-28 melanoma) | TGI (OVCAR-5 ovarian) | TGI (OVCAR-4 ovarian) | TGI (K-562 leukemia) | TGI (SK-MEL-5 melanoma) | TGI (SR leukemia) | TGI (A549 NSCLC) | TGI (SF-268 CNS) | TGI (CAKI-1 renal) | TGI (RPMI-8226 leukemia) | TGI (M14 melanoma) | TGI (COLO 205 colon) | TGI (SW-620 colon) | TGI (PC-3 prostate) | TGI (HCC-2998 colon) | TGI (HT29 colon) | TGI (MDA-MB-435) | TGI (NCI-H460 lung) | TGI (HCT-15 colon) | TGI (LOX IMVI melanoma)
39.7 µM: TGI (OVCAR-8 ovarian)
38.1 µM: TGI (NCI/ADR-RES ovarian)
30.6 µM: TGI (RXF 393 renal)
63.2 µM: TGI (SK-OV-3 ovarian)
62 µM: TGI (TK-10 renal)
45.6 µM: TGI (NCI-H522 lung)
0.943 µM: TGI (MDA-MB-468 breast)

From PubChem BioAssay (NCI)
